Results taken from patent US20090047288A1, “Glucan compositions and methods of enhancing CR3 dependent neutrophil-mediated cytotoxicity” (priority 2006, published 2009).

How the values were obtained:
[1] = tested on: PI 3-kinase; experiment: PI 3-kinase activity after dual ligation of CR3 in human neutrophils (ELISA); type: cell-based; settings: dual ligation plus inhibitor: LY294002 50 μM, Piceatannol 25 μM; one hour
Description: Human neutrophils were stimulated with anti-M1/70 mAb (1 μg/ml) followed with goat-anti-rat Ig (5 μg/ml) in the presence or absence of the 25 kD active moiety of β-glucan (10 μg/ml) at 37° C. […] For measurement of PI 3-kinase activity, cells were stimulated for one hour and aliquots of cell lysates adjusted for protein concentration (500 μg of protein) were incubated for two hours at 4° C. with anti-PI 3-kinase p85 antibody, and immune complexes were adsorbed onto protein A-agarose for three hours. The complexes were then washed twice with lysis buffer and three times with 10 mM Tris-HCl, pH 7.4. To ensure that PI 3-kinase levels remained equivalent at the end of the immunoprecipitation, 10% from each treatment sample were collected during the last wash in a separate tube and analyzed by SDS-PAGE and immunoblotting with Abs to the p85 PI 3-kinase subunit. […] In brief, cell lysates were prepared and PI-3K was immunoprecipitated with antibody against the p85 subunit and incubated with PI(4,5)P2 (phosphatidylinositol-4,5-diphosphate). […]
Additionally, human peripheral blood neutrophils were stimulated with M1/70 mAb followed by secondary Ab (with or without 25 kD β-glucan) or 25 kD β-glucan alone for one hour. […] The immunoprecipitates were analyzed on SDS-PAGE gel and blotted with anti-PI 3-kinase p85 mAb. The immunoprecipitates were also measured for PI 3-kinase activity by ELISA. […]

[2] = tested on: low-grade or slow-growing NHL; settings: 166 patients with advanced low-grade or slow-growing NHL, cited from earlier work

Compound	PI 3-kinase activity (level of PI(3,4,5)P3) [1] [µM]	patients having complete remission [2] [%]	patients whose tumors shrunk by at least one half ([2]; those who completed treatment) [%]
O=c1cc(N2CCOCC2)oc2c(-c3ccccc3)cccc12 [LY294002]	9.05 ± 1.14		
Oc1cc(O)cc(/C=C/c2ccc(O)c(O)c2)c1 [Piceatannol]	17.1 ± 1.5		
rituximab: monoclonal antibody used to treat non-Hodgkin's lymphoma		6	48
